From patent publication US8940685B2, “Method for preparing active peptides from corn germ proteins” (China National Research Institute of Food and Fermentation …, priority 2011, dated 2015)

Experiments:
[1] = test system: spontaneous hypertension rats; assay: antihypertensive effect on spontaneous hypertension rat, 8 weeks of continuous gavage; type: in vivo; conditions: for blood pressure: Captopril group 10 mg/kg.bw gavage, n = 8
Protocol: The blank control group was gavaged with the same volume of distilled water, and the positive control group was gavaged with 10 mg/kg.bw captopril.

ACE = ACE (Homo sapiens, UniProt P12821); conditions: read-out: in vitro antihypertensive activity IC50; cited from earlier work
SHR = conditions: oral gavage 50 mg/kg, after two hours; cited from earlier work
[2] = after 8 weeks of continuous gavage, each group, P>0.05

ACE, sequence (P12821 30-1306, species assumed): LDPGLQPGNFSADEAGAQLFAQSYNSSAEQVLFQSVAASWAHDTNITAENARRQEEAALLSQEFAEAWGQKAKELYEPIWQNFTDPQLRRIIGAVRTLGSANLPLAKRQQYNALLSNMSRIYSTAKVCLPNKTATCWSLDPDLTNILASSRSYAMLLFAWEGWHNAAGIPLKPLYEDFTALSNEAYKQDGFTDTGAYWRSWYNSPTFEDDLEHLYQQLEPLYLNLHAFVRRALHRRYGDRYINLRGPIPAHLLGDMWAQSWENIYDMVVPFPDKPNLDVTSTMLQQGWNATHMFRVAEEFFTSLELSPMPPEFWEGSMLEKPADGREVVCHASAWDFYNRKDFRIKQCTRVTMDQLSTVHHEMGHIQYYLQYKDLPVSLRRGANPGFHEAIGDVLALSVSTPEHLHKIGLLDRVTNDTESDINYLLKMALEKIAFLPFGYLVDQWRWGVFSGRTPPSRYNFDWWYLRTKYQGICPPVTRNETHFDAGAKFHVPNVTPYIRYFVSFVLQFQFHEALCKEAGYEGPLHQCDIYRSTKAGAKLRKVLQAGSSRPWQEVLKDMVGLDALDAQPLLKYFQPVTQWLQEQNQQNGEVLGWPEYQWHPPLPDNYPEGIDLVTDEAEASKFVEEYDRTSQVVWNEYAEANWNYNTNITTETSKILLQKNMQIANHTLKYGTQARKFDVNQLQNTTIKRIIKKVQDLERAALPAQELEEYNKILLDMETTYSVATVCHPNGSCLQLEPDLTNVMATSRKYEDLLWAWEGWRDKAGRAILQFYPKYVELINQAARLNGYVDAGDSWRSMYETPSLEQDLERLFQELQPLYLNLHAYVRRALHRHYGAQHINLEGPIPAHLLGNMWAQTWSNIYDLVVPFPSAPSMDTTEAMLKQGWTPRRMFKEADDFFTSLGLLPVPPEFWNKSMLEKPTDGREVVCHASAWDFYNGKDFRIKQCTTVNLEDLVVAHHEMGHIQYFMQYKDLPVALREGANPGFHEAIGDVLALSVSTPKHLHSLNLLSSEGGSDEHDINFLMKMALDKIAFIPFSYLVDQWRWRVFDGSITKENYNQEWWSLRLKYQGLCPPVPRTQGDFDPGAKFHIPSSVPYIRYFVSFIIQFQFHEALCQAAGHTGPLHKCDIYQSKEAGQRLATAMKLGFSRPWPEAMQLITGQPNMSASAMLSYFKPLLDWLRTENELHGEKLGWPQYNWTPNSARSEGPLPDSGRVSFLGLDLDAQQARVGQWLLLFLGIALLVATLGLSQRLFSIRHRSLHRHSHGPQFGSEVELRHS

## C[C@H](CS)C(=O)N1CCC[C@H]1C(=O)O [Captopril, captopril]
[1]; 0w
  blood pressure: 193 ± 6 mmHg
[1]; 1w
  blood pressure: 184 ± 16 mmHg
[1]; 2w
  blood pressure: 177 ± 9 mmHg
[1]; 3w
  blood pressure: 174 ± 12 mmHg
[1]; 4w
  blood pressure: 170 ± 14 mmHg
[1]; 5w
  blood pressure: 168 ± 12 mmHg
[1]; 6w
  blood pressure: 164 ± 17 mmHg
[1]; 7w
  blood pressure: 162 ± 15 mmHg
[1]; 8w
  blood pressure: 161 ± 16 mmHg
[1]; [2]
  body weight: no significant change
  heart rate: no significant change
  heart/body weight ratio: no significant change
[1]; captopril group 10 mg/kg.bw, n=8, P<0.01
  Serum aldosterone concentration vs control group: significantly lower

## alanine-Tyrosine [AY]
ACE
  IC50: 14.2 µM
SHR
  drop of blood pressure: 9.5 mmHg
